Values quoted from earlier work as cited in patent publication US20230087756A1, “SYSTEMS AND METHODS FOR […] OF BREWED BEVERAGES AND ACTIVE INGREDIENTS” (RECEPTOR HOLDINGS, INC., priority 2020, published 2023).

In the case of CCCCCc1cc(O)c2c(c1)OC(C)(C)[C@@H]1CCC(C)=C[C@@H]21 [THC, (−)-trans-delta-9-tetrahydrocannabinol], the “duration of appetite stimulant effect” value (after administration) is given as ≥ 24 h, the peak effect (after most forms of oral administration) is given as 2 to 4 h and the absorbed (after single oral doses) is given as 90-95%. The “duration of action for psychoactive effects” value (oral administration) was 4 to 6 h.
